The values that follow come from patent US5914237A, “Kinase receptor activation assay” (Genentech Incorporated, priority 1995, dated 1999).

Read-outs that look alike come from different tables or passages of the source.

For assay [1], the system named is p185^HER2 (HER2 receptor). Put plainly: p185HER2 KIRA ELISA (receptor autophosphorylation in MCF-7 cells). Type of assay: cell-based, human. As to conditions: for receptor stimulation and autophosphorylation (assay specificity, FIG. 8): HRG up to 3000 pM, other ligands up to 30000 pM. Here is the method:
MCF-7 cells (2×10^5) in 100 μl media were added to each well in a flat-bottom-96 well culture plate and cultured overnight at 37° C. in 5% CO2. The following morning the well supernatants were decanted, and the plates were lightly tamped on a paper towel. 50 μl of media containing either experimental samples or the recombinant HRGβ1177-244 standards (3000, 1000, 333, 111, 37, 12, 4, and 0 pM) was then added to each well. The cells were stimulated at 37° C. for 30 min., the well supernatants were decanted, and the plates were once again lightly tamped on a paper towel. To lyse the cells and solubilize the receptors, 100 μl of lysis buffer was added to each well. Lysis buffer consisted of 150 mM NaCl containing 50 mM HEPES (Gibco), 0.5% Triton-X 100 (Gibco), 0.01% thimerosal, 30 KIU/ml aprotinin (ICN Biochemicals, Aurora, Ohio), 1 mM 4-(2-aminoethyl)-benzenesulfonyl fluoride hydrochloride (AEBSF; ICN Biochemicals), 50 μM leupeptin (ICN Biochemicals), and 2 mM sodium orthovanadate (Na3 VO4, Sigma Chemical Co, St. Louis, Mo.), pH 7.5. The plate was then agitated gently on a plate shaker (Bellco Instruments, Vineland, N.J.) for 60 min. at room temperature.
While the cells were being solubilized, an ELISA microtiter plate (Nunc Maxisorp, Inter Med, Denmark) coated overnight at 4° C. with the affinity-purified polyclonal anti-HER2 ECD (1.0 μg/ml in 50 mM carbonate buffer, pH 9.6, 100 μl/well) was decanted, tamped on a paper towel and blocked with 150 μl/well of Block Buffer [PBS containing 0.5% BSA (Intergen Company, Purchase, N.Y.) and 0.01% thimerosal] for 60 min. at room temperature with gentle agitation. After 60 minutes, the anti-HER2 ECD coated plate was washed 6 times with wash buffer (PBS containing 0.05% Tween-20 and 0.01% thimerosal) using an automated plate washer (ScanWasher 300, Skatron Instruments, Inc, Sterling, Va.).
The lysate containing solubilized p185^HER2 from the cell-culture microtiter well was transferred (85 μl/well) to anti-rHER2 ECD coated and blocked ELISA well and was incubated for 2 h at room temperature with gentle agitation. […] The absorbance at 450 nm was read with a reference wavelength of 650 nm (ABS450/650), using a vmax plate reader (Molecular Devices, Palo Alto, Calif.) controlled with a Macintosh Centris 650 (Apple Computers, Cupertino, Calif.) and DeltaSoft software (BioMetallics, Inc, Princeton, N.J.).
The standard curve shown in FIG. 7 was generated by stimulating MCF-7 cells with 3000, 1000, 333, 111, 37, 12, 4, or 0 pM HRGβ1177-244 and presented as pM HRGβ1177-244 vs. mean ABS450/650 ±sd using the DeltaSoft program. Sample concentrations were obtained by interpolation of their absorbance on the standard curve and are expressed in terms of pM HRGβ1177-244 activity.
(In general: In an ELISA, binding on a coated surface is turned into a signal by an enzyme label.)

The next assay concerns the target trkA.IgG. Put plainly: Competitive displacement binding with iodinated NGF to trkA.IgG. Details: species or system human. As for the experimental part: (§1) The media mentioned above (having the gD.trk.IgG) was used without further purification in binding assays to assess the effects of the presence of the gD flag polypeptide on neurotrophin binding to the gD.trk.IgG polypeptides. DNA encoding untagged trk.IgG polypeptide was run in parallel as a control. trk.IgG and gD tagged trk.IgG containing cell supernatants were prepared as described and used in competitive displacement assays with the appropriate iodinated neurotrophin. NGF is used as ligand for trkA, NT5 is used as ligand for trkB, and NT3 is used as a ligand for trkC.

Another assay has as its target trkC.IgG. Put plainly: Competitive displacement binding with iodinated NT3 to trkC.IgG. Set-up: species or system human. Here is the method:
as §1

In a further assay the target is trkB.IgG. Nature of the assay: Competitive displacement binding with iodinated NT5 to trkB.IgG. Details: species or system human. As for the experimental part:
as §1

The molecule EGF: epidermal growth factor came in with an OD450/650 in assay [1] (highest concentration tested (100 nM)) of 0.239.
Consider IGF-1: insulin-like growth factor-1, for which, in assay [1], the “receptor stimulation and autophosphorylation (assay specificity, FIG. 8)” value is on record as “Neither insulin-like growth factor-1 (IGF-1), vascular endothelial growth factor (VEGF) nor insulin have any detectable effect”.
As usually defined, the IC50 is the midpoint of a concentration-inhibition curve. With “NGF: nerve growth factor prepared by recombinant techniques; ligand for trkA”, the IC50 is 0.0688 ± 0.003 nM on trkA.IgG (gD tagged trkA.IgG, read-out: IC50 with gD) and 0.0684 ± 0.0119 nM on trkA.IgG (trkA.IgG, untagged, read-out: IC50 without gD).
As for “NT3: neurotrophin 3 prepared by recombinant techniques; ligand for trkC”, the IC50 came out at 0.0302 ± 0.0007 nM at trkC.IgG (gD tagged trkC.IgG, read-out: IC50 with gD) and 0.0311 ± 0.0011 nM at trkC.IgG (trkC.IgG, untagged, read-out: IC50 without gD).
Take VEGF: the “receptor stimulation and autophosphorylation (assay specificity, FIG. 8)” value in assay [1] was “Neither insulin-like growth factor-1 (IGF-1), vascular endothelial growth factor (VEGF) nor insulin have any detectable effect”.
With insulin: insulin, in assay [1], the “receptor stimulation and autophosphorylation (assay specificity, FIG. 8)” value was “Neither insulin-like growth factor-1 (IGF-1), vascular endothelial growth factor (VEGF) nor insulin have any detectable effect”.

B1: NT5: neurotrophin 5 prepared by recombinant techniques; ligand for trkB (protein, UniProt P34130 81-210, looked up)
Neurotrophin-4: GVSETAPASRRGELAVCDAVSGWVTDRRTAVDLRGREVEVLGEVPAAGGSPLRQYFFETRCKADNAEEGGPGAGGGGCRGVDRRHWVSECKAKQSYVRALTADAQGRVGWRWIRIDTACVCTLLSRTGRA
With B1, the IC50 stood at 0.0121 ± 0.018 nM on trkB.IgG (gD tagged trkB.IgG, read-out: IC50 with gD) and 0.0311 ± 0.0156 nM on trkB.IgG (trkB.IgG, untagged, read-out: IC50 without gD).
